Experimental findings from patent US12478693B2, “Compositions and methods for detection of traumatic brain injury” (Amydis, Inc., priority 2018, dated 2025) are described below.

Holding throughout (format): binding
In test [1] the test system is amyloid-beta (Aβ) deposits in human retinal tissue. Nature of the test: Ex vivo fluorescence staining of post-mortem human retina with ASF probe. The conditions noted are these: AD and cognitively normal patients, listed as ASF. The procedure: Post-mortem retinal tissue and brains of humans with confirmed or probable Alzheimer's disease (AD) were obtained and examined by staining amyloid-beta (A3) with a test amyloid sensitive fluorescent probe (ASF), Compound 1. This example was conducted to determine if the ASF could identify patients with amyloid burden in the brain through fluorescence inspection of retinas stained with the ASF.
While this example could observe these deposits in both AD (panels A-B) and cognitively normal patients (panels C-D), there is a qualitative correlation between the density of these deposits in the retina and the degree of amyloidosis in the brain (as estimated by immunohistochemistry (IHC) with anti-Aβ antibodies).
IHC staining of retinal cryosections provided further evidence for the existence of Aβ in retinal deposits with similar location, size, and morphology as the deposits found in retinal flat mounts stained with the ASF.

For test [2], the system named is amyloid beta in retinal tissue. Nature of the test: Staining of retinal tissue of TBI blast mouse model. The conditions noted are these: for fluorescent labelling of retinal Aβ deposits: blast mouse model, 24 hours after injury; for fluorescent labelling of retinal tissue: non-injured (normal) mouse. As for the experimental part:
This example was conducted to determine whether the ASF Compound 1 could detect AR in the retina of a TBI mouse model after injury.
Retinal tissue of a blast mouse model 24 hours after injury and a non-injured mouse were stained with the ASF and co-stained with an […] (6E10).

The subject of test [3] is amyloid beta in brain tissue. The test can be described thus: Staining of brain tissue of TBI blast mouse model. The text has this:
Based on this evidence, this example further attempted to confirm that […] was also detected in the brain tissue of the same TBI blast mouse model. […] The evidence of Aβ in the brain tissue complements what was found in the retinal tissue of the same injured mouse. It also supports previous studies of the correlation between the brain and retina in the accumulation of Aβ.

For test [4], the system named is aggregated proteins in retina. Nature of the test: Retina staining after controlled cortical impact (Example 3). The conditions noted are these: 3 month old C5BL/6 mice, 24 h after CCI. The text has this: 3 month old C5BL/6 mice were briefly anesthetized with isoflurane and placed in a stereotaxic frame. Mice were subjected to craniotomy over the right primary and secondary motor cortex and parietal-temporal cortex (+1 to −4 anterior-posterior from the bregma, 4 mm laterally from the sagittal suture). Half of the mice were not further injured to use as control specimen. For the remaining mice a 3 mm diameter piston was centered over the motor cortex approximately +0.5 to −2.5 mm from the bregma and 3 mm lateral to the sagittal suture. Using a stereotaxic impactor (Impact One, myNeuroLab.com), the piston was accelerated at a speed of 3 m/sec to an impact depth of 1 mm below the cortical surface. After 24 h, mice were euthanized and brain and eyes were collected. Retinas were extracted, stained with DAPI, Compound 1, and 6E10 antibody, and compared.
Retinas were mounted on slides and washed with phosphate-buffered saline (PBS) two times for five minutes each time. Retinas were exposed to 98% formic acid for one minute then washed two times with distilled water for five minutes each time. The retinas were then equilibrated in 1×PBS for 15 minutes. Retinas were exposed to 10% goat/donkey serum in 1× phosphate-buffered saline with Tween® 20 (PBST) for 1 h. Retinas were then incubated with […] in 10% goat serum in 1×PBST at 4° C. overnight. […]

The next test addresses T1, Aβ deposits in retina (Mus musculus, UniProt P12023).
T1 construct: denotes peptides of about 36 to 43 amino acids; from tissue; host or cells: mouse retina dissected 24 h after CCI
The test can be described thus: Ex vivo detection of retinal Aβ aggregation in CCI mouse model (Example 4). As for the experimental part: Mice were subjected to a controlled cortical impact (CCI). The CCI model applies a controlled impact to the intact dura after a craniotomy and is a commonly used TBI animal model. Mice were anesthetized, the head was mounted in a stereotaxic frame, and a craniotomy was performed over the right side of the frontal cortex. Using a stereotaxic impactor, mice received an impact on the right side of the frontal cortex using a 3 m/s velocity, 1 mm depth, and 3 mm diameter piston. After injury, the incision was closed with staples, anesthesia was terminated, and the animal was placed in a heated cage to maintain normal core temperature.
Sham injury consisted of exposure to anesthesia, stereotaxic mounting, skin and fascia reflection, and closing of incision with staples. Mice were then euthanized 24 hours after injury and retinal tissue were dissected for further analysis.
Retina from mice were extracted and stained with Compound 1 along with a 6E10 antibody, a sequence specific antibody for Aβ.
Mice were subjected to a controlled cortical impact (CCI). The CCI model applies a controlled impact to the intact dura after a craniotomy and is a commonly used TBI animal model. Mice were anesthetized, the head was mounted in a stereotaxic frame, and a craniotomy was performed over the right side of the frontal cortex. […]

Entries after “also recorded” stand apart in the source; their conditions may differ.

T1 sequence (P12023 672-713 limits assumed): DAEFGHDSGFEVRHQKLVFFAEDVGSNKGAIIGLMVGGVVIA

Regarding `COCCOCCOCCNC(=O)/C(C#N)=C/c1ccc2cc(N3CCCCC3)ccc2c1` [Compound 1, (E)-2-cyano-N-(2-(2-(2-methoxyethoxy)ethoxy)ethyl)-3-(6-(piperidin-1l-yl)naphthalen-2-yl)acrylamide], in test [1], the “fluorescent visualization / binding of amyloid deposits in flat mounted retina” value is on record as “dense deposits that were 5-10 μm in diameter could be fluorescently visualized; also recorded: capable of binding to amyloid deposits in ex vivo human retinal tissue”. The “fluorescent labelling of retinal Aβ deposits” value in test [2] was “fluoresces amyloid beta in retinal tissue of TBI blast mouse model; also recorded: has the ability to detect retinal amyloids present in a TBI mouse model”; in test [2] (listed as ASF) it was “fluorescently labels these retinal deposits”; on Aβ deposits in retina (mice that received a CCI, 24 hours after injury, retina ex vivo) it was “fluorescently labeled these deposits and co-localized with 6E10 immunoreactivity”. Further, the “fluorescent labelling of retinal tissue” value in test [2] was “No visible fluorescence in normal mouse”; in test [2] (listed as ASF), “does not display any fluorescent enhancement”. Further, the “fluorescent labelling of amyloid beta in brain tissue” value in test [3] (TBI blast mouse model) is “fluoresces amyloid beta in brain tissue of TBI blast mouse model”. For the same compound, in test [3] (normal mouse), the “fluorescent labelling of brain tissue” value is on record as “No visible fluorescence in normal mouse”. The “detection of deposited aggregated proteins in retina” value in test [4] is reported as “detected; also recorded: colocalized”. Further, the “fluorescence enhancement in retina” value at Aβ deposits in retina (uninjured (sham) mouse) is “did not display any fluorescence enhancement”.
